Experiment [1] deals with microchannels in skin made by a microneedle device. As to the kind of experiment: In vivo transepidermal water loss (TEWL) after microneedle pretreatment. The following applies: swine; DPG formulated with saturated compound, applied after microneedle pretreatment; FIG. 4. As for the experimental part: Transepidermal water loss (TEWL) was assessed in vivo in swine as an indicator of skin integrity before and after microneedle pretreatment, using dipropylene glycol (DPG) formulated with saturated (i) cholesterol, (ii) curcumin, (iii) glycyrrhizin, (iv) diclofenac, or (v) no anti-healing compound. The diclofenac formulation was used as a positive control, and the formulation with no anti-healing compound was used as a negative control. Microneedle devices were inserted into swine skin with an applicator and removed, followed by application of the formulations. TEWL was measured before and after microneedle pretreatment, and during application of the formulations (formulations were removed and reapplied at every time point).
FIG. 4 illustrates the in vivo transepidermal water loss measured before and after microneedle pretreatment for the five formulations.

Experiment [2] has the same test system. As to the kind of experiment: In vivo impedance after microneedle pretreatment. The note with it: swine; DPG formulated with saturated compound, applied after microneedle pretreatment; FIG. 5. As for the experimental part:
Impedance (Z) was assessed in vivo in swine as a measure of skin integrity using the compositions described above. Microneedle devices were inserted into swine with an applicator and removed, followed by application of the formulations. Impedance was measured before and after microneedle pretreatment, and during application of the formulations (formulations were removed and reapplied at every time point).
FIG. 5 illustrates the in vivo impedance measured before and after microneedle pretreatment for the five formulations.

A further experiment concerns microchannels. The following applies: reported in the literature; cited from earlier work.

As for `CC(C)CCC[C@@H](C)[C@H]1CC[C@H]2[C@@H]3CC=C4C[C@@H](O)CC[C@]4(C)[C@H]3CC[C@]12C` [cholesterol], the “transepidermal water loss (TEWL), sustained level” value (“transepidermal water loss (TEWL)” below) in experiment [1] was “higher sustained levels of TEWL than the formulation with no anti-healing compound”. In addition, the “impedance (Z)” value in experiment [2] is given as “low impedance throughout the study”.

In the case of `O=C(O)Cc1ccccc1Nc1c(Cl)cccc1Cl` [diclofenac, reference compound], in experiment [1], the “transepidermal water loss (TEWL)” value is “highest sustained level of TEWL”. The “impedance (Z)” value in experiment [2] is listed as “low impedance throughout the study”. Further, the lifetime of microchannels entry in the experiment with microchannels is listed as “extend the lifetime of microchannels”.

For the compound `COc1cc(/C=C/C(=O)CC(=O)/C=C/c2ccc(O)c(OC)c2)ccc1O` [curcumin], the “transepidermal water loss (TEWL)” value in experiment [1] is reported as “higher sustained levels of TEWL than the formulation with no anti-healing compound”. Further, the “impedance (Z)” value in experiment [2] is “low impedance throughout the study”.

Consider `CC1(C)[C@@H](O[C@H]2O[C@H](C(=O)O)[C@@H](O)[C@H](O)[C@H]2O[C@@H]2O[C@H](C(=O)O)[C@@H](O)[C@H](O)[C@H]2O)CC[C@]2(C)[C@H]3C(=O)C=C4[C@@H]5C[C@@](C)(C(=O)O)CC[C@]5(C)CC[C@@]4(C)[C@]3(C)CC[C@@H]12` [glycyrrhizin], for which the “transepidermal water loss (TEWL)” value in experiment [1] was “higher sustained levels of TEWL than the formulation with no anti-healing compound”. In experiment [2], the “impedance (Z)” value is recorded as “low impedance throughout the study”.

The values are drawn from patent publication US9987361B1, “Compositions and method for sustained drug delivery by active transdermal technology” (Noven Pharmaceuticals, Inc., priority 2014, dated 2018).
